Measurements reported in US20240287022A1 (Merck Sharp & Dohme LLC, priority 2021, published 2024).

Biological target: recombinant IL4I1 (Homo sapiens (Human), UniProt Q96RQ9)
Assay: IL4I1 Enzymatic Assay (Amplex Red/HRP coupled H2O2 detection)
Assay type: biochemical
Conditions: 1 nM IL4I1, 1 mM each Phe/Tyr/Trp, four-hour pre-incubation, 120 minutes reaction, top compound concentration of 10000 nM
In short: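 Recombinant IL4I1 (1 nM final) was pre-incubated 4 h at ambient temperature with compound in 50 mM Hepes pH 7.0, 0.005% Tween20. Reaction ran 120 min with 1 mM each Phe/Tyr/Trp, 0.05 mM Amplex Red and 1 U/mL HRP. Resorufin fluorescence (544/590 nm) was read, and EC50 fitted from ten-point 1:3 titrations (top 10000 nM) by four-parameter regression.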

recombinant IL4I1, sequence (Q96RQ9 22-567): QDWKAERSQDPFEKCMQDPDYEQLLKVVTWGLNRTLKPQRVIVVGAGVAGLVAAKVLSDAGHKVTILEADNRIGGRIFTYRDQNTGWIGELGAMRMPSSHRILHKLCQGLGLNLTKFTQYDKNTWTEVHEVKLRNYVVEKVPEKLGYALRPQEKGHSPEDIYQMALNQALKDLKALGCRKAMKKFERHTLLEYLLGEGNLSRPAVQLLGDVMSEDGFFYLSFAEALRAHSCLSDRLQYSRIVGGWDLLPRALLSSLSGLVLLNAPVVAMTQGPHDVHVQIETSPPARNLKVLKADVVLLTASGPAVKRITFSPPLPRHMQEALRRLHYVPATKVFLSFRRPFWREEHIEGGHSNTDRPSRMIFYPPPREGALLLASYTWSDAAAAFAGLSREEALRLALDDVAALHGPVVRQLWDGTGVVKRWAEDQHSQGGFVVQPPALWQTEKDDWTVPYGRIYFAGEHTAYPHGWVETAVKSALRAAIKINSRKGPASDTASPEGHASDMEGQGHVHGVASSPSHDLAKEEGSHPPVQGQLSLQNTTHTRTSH

Row | SMILES | EC50
1 | CC1(c2ccc(Cc3cc4ccccc4[nH]c3=O)cc2)CNC1 [Example 79, 3-(4-(3-methylazetidin-3-yl)benzyl)quinolin-2(1H)-one] | 11.5 nM
2 | O=c1[nH]c2ccccc2cc1Cc1nnc(-c2ncnc3c2CCC3)o1 [Example 40, 3-((5-(6,7-dihydro-5H-cyclopenta[d]pyrimidin-4-yl)-1,3,4-oxadiazol-2-yl)methyl)quinolin-2(1H)-one] | 23.4 nM
3 | Cc1snnc1-c1nnc(Cc2cc3ccccc3[nH]c2=O)o1 [Example 17, 3-((5-(5-methyl-1,2,3-thiadiazol-4-yl)-1,3,4-oxadiazol-2-yl)methyl)quinolin-2(1H)-one] | 169 nM
4 | O=c1[nH]c2ccccc2cc1Cc1nnc(-c2ccccc2)o1 [Example 5, 3-((5-phenyl-1,3,4-oxadiazol-2-yl)methyl)quinolin-2(1H)-one] | 42 nM
5 | CC1(Nc2ccc(Cc3cc4ccccc4[nH]c3=O)cc2)CNC1 [Example 58, 3-(4-((3-methylazetidin-3-yl)amino)benzyl)quinolin-2(1H)-one] | 9.8 nM
6 | CC1(c2nnc(Cc3cc4ccccc4[nH]c3=O)o2)CC1 [Example 42, 3-((5-(1-methylcyclopropyl)-1,3,4-oxadiazol-2-yl)methyl)quinolin-2(1H)-one] | 21 nM
7 | NS(=O)(=O)c1cccc(Cc2cc3cc(F)ccc3[nH]c2=O)c1 [Example 120, 3-((6-fluoro-2-oxo-1,2-dihydroquinolin-3-yl)methyl)benzenesulfonamide] | 3.6 nM
8 | CC(O)C(C#N)c1ccc(Cc2cc3ccccc3[nH]c2=O)cc1 (single isomer, unassigned) [Example 102A, 3-hydroxy-2-(4-((2-oxo-1,2-dihydroquinolin-3-yl)methyl)phenyl)butanenitrile] | 5.2 nM
9 | N#Cc1ccc2[nH]c(=O)c(Cc3ccccc3)cc2c1 [Example 174, 3-Benzyl-2-oxo-1,2-dihydroquinoline-6-carbonitrile] | 10000 nM
10 | O=c1[nH]c2ccccc2cc1Cc1nnc(-c2c(F)cccc2F)o1 [Example 3, 3-((5-(2,6-difluorophenyl)-1,3,4-oxadiazol-2-yl)methyl)quinolin-2(1H)-one] | 2 nM
11 | O=c1[nH]c2ccccc2cc1Cc1ccc(C(O)C(F)(F)F)cc1 (racemic) [Example 126, rac-3-(4-(2,2,2-trifluoro-1-hydroxyethyl)benzyl)quinolin-2(1H)-one] | 2.7 nM
12 | CC(=O)NCc1ccc(Cc2cc3ccccc3[nH]c2=O)cc1F [Example 166, N-(2-fluoro-4-((2-oxo-1,2-dihydroquinolin-3-yl)methyl)benzyl)acetamide] | 2.7 nM
13 | CC1(O)CC(c2ccc(Cc3cc4cnccc4[nH]c3=O)cc2)C1 (stereo not shown) [compound 162, 3-(4-(3-hydroxy-3-methylcyclobutyl)benzyl)-1,6-naphthyridin-2(1H)-one] | 6.8 nM
14 | CC(=O)NCc1ccc(Cc2cc3ccccc3n(C)c2=O)cc1 [Example 151, N-(4-((1-Methyl-2-oxo-1,2-dihydroquinolin-3-yl)methyl)benzyl)acetamide] | 3.3 nM
15 | O=c1[nH]c2ccccc2cc1Cc1nnc(-c2scnc2Cl)o1 [Example 38, 3-((5-(4-chlorothiazol-5-yl)-1,3,4-oxadiazol-2-yl)methyl)quinolin-2(1H)-one] | 25.2 nM
16 | O=c1[nH]c2ncccc2cc1Cc1cccc(OC(F)(F)F)c1 [Example 106, 3-(3-(trifluoromethoxy)benzyl)-1,8-naphthyridin-2(1H)-one] | 958 nM
17 | NS(=O)(=O)c1c(Cl)cc(Cc2cc3ccccc3[nH]c2=O)cc1Cl [Example 71, 2,6-dichloro-4-((2-oxo-1,2-dihydroquinolin-3-yl)methyl)benzenesulfonamide] | 3.7 nM
18 | O=c1[nH]c2ccccc2cc1Cc1ccc2nccnc2c1 [Example 157, 3-(quinoxalin-6-ylmethyl)quinolin-2(1H)-one] | 6.2 nM
19 | O=C1OCCN1c1ccc(Cc2cc3cnccc3[nH]c2=O)cc1 [Example 61, 3-(4-((2-oxo-1,2-dihydro-1,6-naphthyridin-3-yl)methyl)phenyl)oxazolidin-2-one] | 2.7 nM
20 | O=c1[nH]c2ccccc2cc1Cc1ccc(OCC2CC2)nc1 [Example 88, 3-((6-(cyclopropylmethoxy)pyridin-3-yl)methyl)quinolin-2(1H)-one] | 1.3 nM
21 | O=C1CCC(c2ccc(Cc3cc4ccccc4[nH]c3=O)cc2Cl)N1 (stereo not shown) [Example 181, 3-(3-chloro-4-(5-oxopyrrolidin-2-yl)benzyl)quinolin-2(1H)-one] | 2.5 nM
22 | O=c1[nH]c2ccccc2cc1Cc1cnn(CC2(C(F)F)CC2)c1 [Example 111, 3-((1-((1-(difluoromethyl)cyclopropyl)methyl)-1H-pyrazol-4-yl)methyl)quinolin-2(1H)-one] | 24.6 nM
23 | CC1(CO)CN(c2ccc(Cc3cc4ccccc4[nH]c3=O)cn2)C(=O)O1 (racemic) [Example 50, rac-5-(hydroxymethyl)-5-methyl-3-(5-((2-oxo-1,2-dihydroquinolin-3-yl)methyl)pyridin-2-yl)oxazolidin-2-one] | 18.9 nM

Row | SMILES | EC50
24 | CC(C)(O)CN1Cc2ccc(Cc3cc4ccccc4[nH]c3=O)cc2C1=O [Example 94, 3-((2-(2-hydroxy-2-methylpropyl)-3-oxoisoindolin-5-yl)methyl)quinolin-2(1H)-one] | 29.6 nM
25 | CC(=O)NCc1ccc(Cc2cc3ccccc3[nH]c2=O)cc1Cl [Example 66, N-(2-chloro-4-((2-oxo-1,2-dihydroquinolin-3-yl)methyl)benzyl)acetamide] | 2 nM
26 | CC1(O)CN(c2ccc(Cc3cc4ccccc4[nH]c3=O)cn2)C(=O)O1 (racemic) [Example 51, rac-5-hydroxy-5-methyl-3-(5-((2-oxo-1,2-dihydroquinolin-3-yl)methyl)pyridin-2-yl)oxazolidin-2-one] | 29.1 nM
27 | O=c1[nH]c2ccccc2cc1Cc1cnn2c1CCC2 [Example 135, 3-((5,6-dihydro-4H-pyrrolo[1,2-b]pyrazol-3-yl)methyl)quinolin-2(1H)-one] | 11.3 nM
28 | CC(C)(O)c1ccc(Cc2cc3ccccc3[nH]c2=O)cc1Cl [Example 80, 3-(3-chloro-4-(2-hydroxypropan-2-yl)benzyl)quinolin-2(1H)-one] | 3.3 nM
29 | N#Cc1n[nH]c2ccc(Cc3cc4cnccc4[nH]c3=O)cc12 [Example 95, 5-((2-oxo-1,2-dihydro-1,6-naphthyridin-3-yl)methyl)-1H-indazole-3-carbonitrile] | 2.5 nM
30 | O=c1[nH]c2ccccc2cc1Cc1nnc(-c2cnn[nH]2)o1 [Example 4, 3-((5-(1H-1,2,3-triazol-5-yl)-1,3,4-oxadiazol-2-yl)methyl)quinolin-2(1H)-one] | 77.1 nM
31 | O=c1[nH]c2ccccc2cc1Cc1nnc(-c2ccn3ncnc3c2)o1 [Example 26, 3-((5-([1,2,4]triazolo[1,5-a]pyridin-7-yl)-1,3,4-oxadiazol-2-yl)methyl)quinolin-2(1H)-one] | 314 nM
32 | O=C1COc2ccc(Cc3cc4ccccc4[nH]c3=O)c(F)c2N1 [Example 171, 5-Fluoro-6-((2-oxo-1,2-dihydroquinolin-3-yl)methyl)-2H-benzo[b][1,4]oxazin-3(4H)-one] | 7 nM
33 | O=c1[nH]c2ccccc2cc1Cc1nnc(Cc2cccnn2)o1 [Example 25] | 615 nM
34 | O=c1[nH]c2cnccc2cc1Cc1ccccc1 [Example 104, 3-benzyl-1,7-naphthyridin-2(1H)-one] | 9180 nM
35 | O=c1[nH]c2ccccc2cc1Cc1ccc2occc(=O)c2c1 [Example 130, 3-((4-oxo-4H-chromen-6-yl)methyl)quinolin-2(1H)-one] | 1.8 nM
36 | O=c1[nH]c2ccccc2cc1Cc1nnc(-c2cn[nH]c2)o1 [Example 6, 3-((5-(1H-pyrazol-4-yl)-1,3,4-oxadiazol-2-yl)methyl)quinolin-2(1H)-one] | 2.8 nM
37 | O=c1[nH]c2ccncc2cc1Cc1cccc(OC(F)(F)F)c1 [Example 117, 3-(3-(trifluoromethoxy)benzyl)-1,6-naphthyridin-2(1H)-one] | 2.1 nM
38 | O=c1[nH]c2ccccc2cc1Cc1nnc(-c2cnsc2)o1 [Example 30, 3-((5-(isothiazol-4-yl)-1,3,4-oxadiazol-2-yl)methyl)quinolin-2(1H)-one] | 696 nM
39 | O=C1CC[C@@H](c2ccc(Cc3cc4ccccc4[nH]c3=O)cc2)N1 [Example 159, (S)-3-(4-(5-oxopyrrolidin-2-yl)benzyl)quinolin-2(1H)-one] | 4.1 nM
40 | CC(=O)NCc1ccc(Cc2cc3ccccc3[nH]c2=O)cc1 [Example 124, N-(4-((2-oxo-1,2-dihydroquinolin-3-yl)methyl)benzyl)acetamide] | 3.5 nM
41 | CC(C)(O)c1ccc2[nH]c(=O)c(Cc3ccccc3)cc2c1 [Example 173, 3-Benzyl-6-(2-hydroxypropan-2-yl)quinolin-2(1H)-one] | 6840 nM
42 | Cc1nc(C)c(Cc2cc3ccccc3[nH]c2=O)s1 [Example 134, 3-((2,4-dimethylthiazol-5-yl)methyl)quinolin-2(1H)-one] | 5.1 nM
43 | CC(C)(C#N)n1cc(Cc2cc3ccccc3[nH]c2=O)cn1 [Example 148, 2-methyl-2-(4-((2-oxo-1,2-dihydroquinolin-3-yl)methyl)-1H-pyrazol-1-yl)propanenitrile] | 258 nM
44 | Cn1c(=O)c(CC2CC2c2ccccc2)cc2ccccc21 (stereo not shown) [Example 175, 1-Methyl-3-((2-phenylcyclopropyl)methyl)quinolin-2(1H)-one] | 7.7 nM
45 | O=c1[nH]c2ccccc2cc1Cc1ccc2c(c1)S(=O)(=O)CC2 [Example 81, 3-((1,1-dioxido-2,3-dihydrobenzo[b]thiophen-6-yl)methyl)quinolin-2(1H)-one] | 2.4 nM
46 | Cc1noc(C(C)C)c1-c1nnc(Cc2cc3ccccc3[nH]c2=O)o1 [Example 15, 3-((5-(5-isopropyl-3-methylisoxazol-4-yl)-1,3,4-oxadiazol-2-yl)methyl)quinolin-2(1H)-one] | 13.7 nM
